Reference: patent publication EP4667486A1, “COMPOSITION COMPRISING CD38 OR FRAGMENT THEREOF FOR TREATING AUTOIMMUNE DISEASES” (DNT Co., Ltd., priority 2023, dated 2024)

Tests used:
DCs = experiment: LPS-induced TNF-α secretion from bone marrow-derived dendritic cells (ELISA), sCD38 functional domain screening; type: cell-based, mouse; conditions: DCs from bone marrow cells treated with GM-CSF, FIG. 1-3
Description: To isolate bone marrow cells, mice (Damool Science, Korea) were anesthetized and sacrificed, and the femur and tibia were removed aseptically and the tissue attached to the bones was removed. After cutting off both ends of the bones, bone marrow was collected by slowly injecting 5-10 mL of a cell culture medium or a solution used for bone marrow separation into the medullary cavity at one end using a syringe needle, which was then filtered through a 70 µm cell strainer (SPL Life Sciences, Korea) and centrifuged to collect bone marrow cells. After treating with 1 mL of an RBC lysis solution (Merck, Germany) for 2-5 minutes to remove red blood cells, 10 mL of Dulbecco's phosphate-buffered saline (DPBS) (GIBCO, USA) was added, and bone marrow cells were collected through centrifugation. After washing the bone marrow cells 3 times with DPBS, 10 mL of a BMDC culture medium (RPMI-1640 (Welgene, Korea) containing 10% FBS (GIBCO, USA) and 10 ng/mL GM-CSF (Peprotech, USA)) was added to disperse the bone marrow cells into single cells. 1×10^5 bone marrow cells were dispensed into a 24-well culture dish and differentiated in a 37 °C incubator maintained at 5% CO2.
To screen the functional domain of sCD38 that induces dendritic cell tolerance, the domain of sCD38 was largely divided into three parts (CD38 amino acid sequence; 42-140 (1), 130-220 (2), 210-304 (3)). Using the three parts of sCD38, TNF-α secretion was observed as one of the indicators of the degree of DC tolerance induction.
An E. coli expression system was used to express the sCD38 domain protein. The sCD38 domain protein expressed in E. coli was purified using a purification system and used for screening. For fast and easy screening of the domain protein of sCD38, an ELISA method that measures the pro-inflammatory cytokine TNF-α was adopted. When the DCs obtained by treating the bone marrow cells with GM-CSF are treated with LPS, the DCs differentiate into mature DCs and the secretion of TNF-α is increased. It was confirmed that TNF-α secretion from DCs induced by LPS was reduced by the treatment with sCD38 (SEQ ID NO: 33). As a result of treating with sCD38 functional domain, (1) 42-140, (2) 130-220, and (3) 210-304, it was confirmed that the TNF-α secretion from dendritic cells induced by LPS (Merck, Germany) was reduced by the sCD38 functional domain (3).
After the first screening of the sCE38 functional domain that induces dendritic cell tolerance, the selected domain was divided into two parts (C-term 226-265 and C-term 266-304 of CD38 210-304 (3), (SEQ ID NO: 26)). After the domain was divided into two parts, TNF-α secretion was observed as one of the indicators of the degree of DC tolerance induction.
An E. coli expression system was used to express the divided two parts of sCD38. As a result of treating with the divided two parts (C-term 226-265, C-term 266-304) of the sCD38 functional domain (3), it was confirmed that the TNF-α secretion from dendritic cells induced by LPS was reduced by the sCD38 functional domain C-term 266-304.
After the second screening of the sCE38 functional domains that induce dendritic cell tolerance, the screened domain was divided into seven parts and peptide synthesis was performed (peptide 1: 233-247 of sCD38 226-304, peptide 2: 251-265, peptide 3: 269-283, peptide 4: 266-304 (SEQ ID NO: 26), peptide 5 (M19): 286-304 (SEQ ID NO: 21), peptide 6 (M16): 287-302 (SEQ ID NO: 11), peptide 7 (M14): 287-300 (SEQ ID NO: 4)). […]

human dendritic cells = experiment: LPS-induced TNF-α secretion from human monocyte-derived dendritic cells; type: cell-based; conditions: FIG. 9
Description: To isolate human monocytes, 20 mL of whole blood was withdrawn and mix with an equal volume of PBS. After adding 15 mL of Ficoll (GE HealthCare, USA) to a 50-mL tube, 15 mL of diluted whole blood was slowly added onto the Ficoll. Likewise, an equal amount of the remaining whole blood was dispensed slowly into a 50-mL tube containing 15 mL of Ficoll. Centrifugation was performed at 1000 x g for 20 minutes in a centrifuge at room temperature. After carefully removing plasma from the isolated whole blood, a portion including peripheral blood mononuclear cells (PBMCs) was transferred to a new 50-mL tube. After adding 10 mL of PBS to the tube containing PBMCs and mixing gently, centrifugation was performed at 400 x g for 10 minutes at room temperature. After carefully removing the supernatant, 1 mL of an RPMI 1640 medium containing 10% FBS was added to the PBMC pellets, and the cells were counted. After adding an RPMI-1640 medium (Welgene, Korea) containing 10% FBS to 1x10^6 cells per mL, 100 ng/mL GM-CSF (Peprotech, USA) and 50 ng/mL IL-4 (Peprotech, USA) were mixed. After adding 500 µL of PMBC to each well of a 24-well plate, the cells were differentiated in an incubator at 37 °C maintained at 5% CO2 for 5 days.
It was confirmed whether the sCD38 functional domain that induces tolerance of dendritic cells is also effective in human dendritic cells. To identify the functional domain of human sCD38, the C-terminal portion of human CD38 (H18 (283-300), H13 (284-296) (SEQ ID NO: 2)) were prepared into peptides. Human sCD38 and M19 peptides were treated as positive controls, and TNF-α secretion was observed using H18 and H13 peptides as one of the indicators of the degree of DC tolerance induction.
It was confirmed that the TNF-α secretion induced by LPS from human dendritic cells was reduced by the sCD38 functional domain peptides when the human sCD38 and M19 peptides were treated as positive controls and they were treated with the H18 and H13 peptides.

[1] = system: ulcerative colitis animal model; experiment: DSS-induced animal model of ulcerative colitis, colon length; type: in vivo, C57BL/6 mice; conditions: for colon length: 20 µg intrarectally daily for 2 weeks, DSS 6-7 days, FIG. 8
Description: A control ulcerative colitis animal model was established by allowing C57BL/6 mice (Damool Science, Korea) to drink drinking water containing 2-3% dextran sulfate sodium (DSS) (MP Biomedicals, China) for 6-7 days. Administration of DSS increases the level of inflammatory cytokines and causes colitis in mice. The experimental animal model was treated with DSS for 6-7 days, and 20 µg of the sCD38 functional domain (M19 peptide (Peptron, Korea)) was injected intrarectally daily for 2 weeks. Then, it was determined whether the progression of ulcerative colitis was reduced. LiCl (Merck, Germany) was used instead of the sCD38 functional domain (M19 peptide) for a positive control group.
In contrast, it was confirmed that the colon length of the experimental animal model treated with the sCD38 functional domain (M19 peptide) was not shortened.

[2] = system: autoimmune uveitis animal model; experiment: Animal model of autoimmune uveitis (IRBP/PTX-induced), severity; type: in vivo, C57BL/6 mice; conditions: injected into the eye twice a week, versus uninjected uveitis control; FIG. 4
Description: Autoimmune uveitis was induced by […] retinoid-binding protein (IRBP) (Peptron, Korea) into the hind limb muscles of C57BL/6 mice (Damool Science, Korea) and intraperitoneal injection of pertussis toxin (PTX) (List Lab, USA). After 10 to 14 days, the presence or absence of autoimmune uveitis was confirmed in the eyes of the mice. The functional domain of sCD38 (226-304) was injected into the eye of the animal model that developed autoimmune uveitis twice a week to determine the progression of autoimmune uveitis. An autoimmune uveitis animal model to which the functional domain of sCD38 (226-304) was not injected was used as a control group, and animals to which the functional domain of sCD38 (226-304) was injected were used as a test group. The severity of autoimmune uveitis was measured for the experimental animals.

[3] = system: animal model of rheumatoid arthritis; experiment: Collagen-induced arthritis (CIA) animal model of rheumatoid arthritis, hind ankle thickness; type: in vivo, DBA/1 mice; conditions: summary statement referring to Example 8
Description: For induction of collagen-induced arthritis (CIA), 8-9 week-old male DBA/1 mice (Central Lab. Animal, Korea) were immunized with bovine type II collagen (CII) (Central Lab. Animal, Korea). CII was dissolved in 0.05 N acetic acid at a concentration of 2 mg/mL and emulsified at a ratio of 1:1 with complete Freund's adjuvant (CFA) (Central Lab. Animal, Korea) at 4 °C. For the first immunization, 150 µL of a mixture of 100 µg CII and 100 µg CFA was injected intradermally into the tail of the mice. Three weeks later, before booster injection, the sCD38 functional domain (sCD38-3) (226-304) or saline was injected into the ankle joint of the mice, and an equal volume of CII, emulsified at a ratio of 1:1 with incomplete Freund's adjuvant (IFA) (Merck, Germany), was injected into the tail (booster injection). The sCD38 functional domain (sCD38-3) was injected three more times, once a week. After 4 weeks of the booster injection, the mice were euthanized for analysis. After the booster injection, the thickness of the hind ankle of the animal model was measured using a vernier caliper.

| Sequence | TNF-α secretion from dendritic cells induced by LPS (DCs) | TNF-α secretion induced by LPS from human dendritic cells (human dendritic cells) | further results |
| --- | --- | --- | --- |
| ARFLQCVKNPEHPSCRLNT (REGION 1..19: note = 19 mer (Mouse)) [M19, synthesized peptide 286-304 of mouse sCD38] | reduced | reduced | colon length [1]: prevents shortening of the colon; colon length ([1]; listed as M19 peptide): not shortened; progression of ulcerative colitis ([1]; summary statement referring to Example 9): reduces |
| FLQCVKNPEDSSC (REGION 1..13: note = 13 mer (Human or Chimpaanze)) [H13, peptide 284-296 of human CD38] |  | reduces |  |
| KFLQCVKNPEDSSCTSEI (REGION 1..18: note = 18 mer (Human or Chimpaanze)) [H18, domain peptide 283-300 of human CD38] | reduced | reduces |  |
| LKMIVQKRNMIFACVDNYRPARFLQCVKNPEHPSCRLNT (REGION 1..39: note = 39 mer (Mouse)) [peptide 4, synthesized peptide 266-304 of mouse sCD38] | reduced |  | progression of autoimmune uveitis [2]: reduces; rheumatoid arthritis [3]: reduces |
| RFLQCVKNPEHPSC (REGION 1..14: note = 14 mer (Mouse, Rat or Horse)) [M14, synthesized peptide 287-300 of mouse sCD38] | reduces |  |  |
| RFLQCVKNPEHPSCRL (REGION 1..16: note = 16 mer (Mouse)) [M16, synthesized peptide 287-302 of mouse sCD38] | reduces |  |  |
